Test results reported in PMC9181987, “Disclosing the Potential of Fluorinated Ionic Liquids as Interferon-Alpha 2b Delivery Systems” (Nanomaterials, 2022).

What was measured:
[1] = cited from earlier work
IFN-α 2b = target: T1, IFN-α 2b (Homo sapiens, UniProt P01563); test: Microscale thermophoresis (MST) binding affinity of FILs with labelled IFN-α 2b; details: for Kd: labelled IFN-α 2b 2.7 μM, 5 mM NaH2PO4 pH 7.4, 25 °C, ± = Kd confidence of the fitting
T1 construct: purchased Sigma-Aldrich SRP4595; host or cells: E. coli
T1 sequence (P01563 24-188): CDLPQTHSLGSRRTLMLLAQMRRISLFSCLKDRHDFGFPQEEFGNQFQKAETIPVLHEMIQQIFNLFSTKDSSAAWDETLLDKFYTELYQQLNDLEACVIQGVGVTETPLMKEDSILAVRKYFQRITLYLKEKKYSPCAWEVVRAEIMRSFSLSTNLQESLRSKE
Procedure: Several dilution series of 16 samples of 20 μL were prepared in triplicate for each studied system. All the solutions were prepared in the buffer of the protein, 5 mM of NaH2PO4 (pH = 7.4), and PCR tubes. In the first tube (1 out 16) 20 μL of FIL stock solution was added at twofold the maximum concentration defined for each assay. In the remaining 15 tubes, 10 μL of buffer was added, followed by the series dilution of the FIL. […] The selected concentrations cover the range where the distinct CACs are formed in each FIL. The excitation power was determined by a pre-test and set to 20% whereas the MST power was set to medium (standard). The assays were executed in standard capillaries and triplicates. The results were processed using the MO.Affinity Analysis v2.3 software (NanoTemper Technologies, Munich, Germany).
In the process of labelling, commonly, one amine per protein is labelled, statistically distributing the position of the dye. […] As explained in the experimental section, in each run of MST, a maximum concentration is chosen and is consecutively diluted in 16 capillaries.

[2] = parameters: method as in earlier work; details: Water, 25°C, ref [1]; cited from earlier work
[3] = parameters: method as in doi:10.5772/INTECHOPEN.96336, doi:10.1016/j.molliq.2022.119285, PMID 25580898; details: cited from earlier work
[4] = Contact angle goniometry breakpoints; format: physicochemical; details: 25°C
Procedure: The force tensiometer is equipped with a platinum Du Noüy ring to surface tension measurement and a thermostatic vessel connected to a bath circulator (RW-0535G, Lab. Companion, Daejeon, Republic of Korea) in order to keep the temperature of the solution constant. Next, 15 mL of each sample was placed in a glass container and left to equilibrate in the thermostatic vessel. After temperature equilibration, the surface tension was measured. The equipment is a standalone-controlled instrument, and the calibration was conducted with a calibration weight with a known mass before measuring the samples. Each sample was measured five times, and the reported surface tension was the average value with an uncertainty of ±0.22 mN/m. Each solution was then assessed by a KSV’s contact angle goniometer CAM100 (Biolin Scientific, Gothenburg, Sweden). A drop of each solution was placed on a Teflon surface with a Hamilton syringe. This equipment is a PC-controlled instrument, and the tilt was set to 0 degrees at the base of the drop and was recorded for 10 frames with an interval of 1 s. The contact angle was calculated for the left and right sides of the drop and the mean value was the resulting contact angle. At least five different drops of each solution were recorded, and the reported contact angle was the resulting average with an uncertainty of ±5%.

[5] = 5 μg/mL IFN-α 2b + 5 mM NaH2PO4 (pH=7.4), 1st breakpoint
[6] = 5 μg/mL IFN-α 2b + 5 mM NaH2PO4 (pH=7.4), 2nd breakpoint
[7] = 5 μg/mL IFN-α 2b + 5 mM NaH2PO4 (pH=7.4), 3rd breakpoint
[8] = 5 μg/mL IFN-α 2b + 5 mM NaH2PO4 (pH=7.4), 4th breakpoint

## CCn1cc[n+](C)c1.O=S(=O)([O-])C(F)(F)C(F)(F)C(F)(F)C(F)(F)F [[C2C1Im][C4F9SO3], 1-Ethyl-3-methylimidazolium perfluorobutanesulfonate]
[1]
  toxicity: negligible toxicity
IFN-α 2b; assay 30 − 9.2 × 10^−4 mM FIL
  Kd: 0.136 ± 0.117 mM
IFN-α 2b; assay 80 − 2.4 × 10^−3 mM FIL
  Kd: 7.53 ± 5.61 mM
IFN-α 2b; assay 160 − 4.9 × 10^−3 mM FIL
  Kd: 40.5 ± 29.5 mM
IFN-α 2b; range of concentrations under the 1st CAC, only FIL monomers
  binding to IFN-α 2b (MST): no binding was detected
[2]
  First CAC: 14.55 mmol/kg
  First CAC (wFIL): 0.0060
  Gibbs free energy of aggregation ΔG0agg, First CAC: -5.9 kcal/mol
  Gibbs free energy of aggregation ΔG0agg, Second CAC: -4.97 kcal/mol
  Gibbs free energy of aggregation ΔG0agg, Third CAC: -6.57 kcal/mol
  Second CAC: 38.54 mmol/kg
  Second CAC (wFIL): 0.0158
  Third CAC: 81.03 mmol/kg
  Third CAC (wFIL): 0.0332
  ionization degree α, First CAC: 0.79
  ionization degree α, Second CAC: 0.84
  ionization degree α, Third CAC: 0.29
[3]
  miscibility in water: full miscibility in water
[4]; [5]
  CAC (wFIL), goniometer: 0.0009
  CAC, goniometer: 2.101 mmol⸱kg-1
[4]; [6]
  CAC (wFIL), goniometer: 0.0030
  CAC, goniometer: 7.288 mmol⸱kg-1
[4]; [7]
  CAC (wFIL), goniometer: 0.0157
  CAC, goniometer: 38.18 mmol⸱kg-1
[4]; [8]
  CAC (wFIL), goniometer: 0.0430
  CAC, goniometer: 104.7 mmol⸱kg-1
[4]; 5 mM NaH2PO4 (pH=7.4)
  CAC (wFIL), goniometer: 0.0329
  CAC, goniometer: 80.27 mmol⸱kg-1
